Converted amounts (≈) assume the structure as drawn. Starred links: 1 amine or outer side, 2 acyl side, 3 side chain; linkers in the order of their positions; H or OH if unused. Positions of bridges follow the written chain, without caps; N, C: chain ends. Non-standard residues stand in square brackets, D forms with d. Residues, ends and D or L forms follow the SMILES beside them. *: point of attachment. dAsp(3R-OH) = N[C@@H](C(=O)O)[C@@H](O)C(=O)O; Palmitoleoyl = CCCCCC/C=C\CCCCCCCC(=O)*; X1 = NC[C@H](O)[C@@H](N[*:1])C(=O)[*:2]; X2 = CCC(C)(O)[C@H](N[*:1])C(=O)[*:2]; d(aIle) = CC[C@H](C)[C@@H](N)C(=O)O; d(aThr) = C[C@@H](O)[C@@H](N)C(=O)O; Myristoyl = CCCCCCCCCCCCCC(=O)*; dOrn = NCCC[C@@H](N)C(=O)O; X3 = CC[C@H](C)CCCCC(=O)*; hSer = N[C@@H](CCO)C(=O)O; Dab = NCC[C@H](N)C(=O)O
Experiments:
Pharmacokinetics in mice = type: in vivo; conditions: 5mg/kg IV, plasma, LC-MS/MS
Method: Eurofins used mice from BioLASCO Taiwan.
Protocols were performed at Eurofins (Taiwan). Turnercyclamycin A in plasma was measured by liquid chromatography-tandem mass spectrometry, and graphs illustrating the mean plasma concentrations (mean ± SD) over time were generated. PK parameters were obtained using non-compartmental analysis of the plasma data with WinNonlin.

[1] = system: evolved turnercyclamycin B-resistant E. coli DH5α; experiment: Broth dilution assay against evolved resistant strains
[2] = system: A. baumannii AB5075UW ΔlpxC::ISAbaI; experiment: Broth dilution assay against LpxC-deficient mutant; conditions: MIC90 ΔlpxC vs WT 5075UW, Fig. 2A
E. coli DH5α [3] = experiment: Evolution of turnercyclamycin-resistant E. coli by sublethal dose passaging; conditions: for time of exposure to reach 32× the original MIC90: daily serial passaging, up to 63 d
[4] = system: A. baumannii Tn26-mlaA insertion strains AB8497, AB8498, AB8499; experiment: Broth dilution assay against mlaA transposon mutants; conditions: for change of MIC90 against AB8497 versus wild type: mlaA insertion at position 132, twofold dilutions from 20 µg/mL; for change of MIC90 against AB8497 versus wild type / change of MIC90 against AB8499 versus wild type: 10 µg/mL tetracycline; for change of MIC90 against AB8499 versus wild type: mlaA insertion at position 507; for sensitivity of the mlaA mutants in comparison to the wild type: AB8497, AB8498, AB8499
pGDP2-MCR-1 in DH5α = experiment: Antibiotic susceptibility testing of MCR-1-expressing E. coli
[5] = system: Keio E. coli mlaA knockouts (ΔmlaA); experiment: Broth dilution assay against Keio mlaA knockouts; conditions: triplicate, three biological replicates
pBR322 in DH5α = experiment: Antimicrobial broth dilution assay, empty vector control; conditions: MTT
E. coli C600 = experiment: Antimicrobial broth dilution assay; conditions: MTT
pBR322 in C600 = experiment: Antimicrobial broth dilution assay, empty vector control; conditions: MTT
E. coli DH5α [6] = experiment: Antimicrobial broth dilution assay
pGDP2-MCR-1 in C600 = experiment: Antibiotic susceptibility testing of MCR-1-expressing E. coli; conditions: broth dilution, MTT
A. baylyi ADP1 ΔpldA = experiment: Broth dilution assay against pldA knockout; conditions: Fig. S4
E. coli ΔompC, ΔompF = experiment: Broth dilution assay against OmpC and OmpF knockouts
Yersinia pestis = conditions: cited from earlier work
[7] = female, BALB/c, mouse, mice, non-compartmental analysis

CCCCCCCCCCCCCC(=O)N[C@H](CCCN)C(=O)N[C@@H](CO)C(=O)N[C@H](C(=O)N[C@@H](C(=O)N[C@@H](C(=O)N[C@H]1C(=O)NCC(=O)N[C@@H](C(C)(O)CC)C(=O)N[C@H]([C@@H](C)CC)C(=O)N[C@@H](CCO)C(=O)N[C@@H](C)C(=O)N[C@H]([C@@H](C)CC)C(=O)N[C@@H](CCC(=O)O)C(=O)O[C@@H]1C)[C@@H](O)CN)[C@@H](O)C(=O)O)C(C)C (stereo partly drawn) [Turnercyclamycin A] (Myristoyl-[dOrn]SV[dAsp(3R-OH)][X1][d(aThr)]G[X2][d(aIle)][hSer]A[d(aIle)]E; ester 6-C)
AUC/D (Pharmacokinetics in mice; mice, non-compartmental analysis): 58080 kg·ng·h/mL/mg | half-life (Pharmacokinetics in mice; BALB/c, mouse, ALB/c female mice, non-compartmental analysis (WinNonlin)): 4.35 h | AUC(0-inf) (Pharmacokinetics in mice; [7]): 290 µg·h/mL | AUC(0-t) (Pharmacokinetics in mice; [7]): 285 µg·h/mL | C0 (Pharmacokinetics in mice; [7]): 33700 ng/mL | clearance (Pharmacokinetics in mice; female, BALB/c, mouse, mice, non-compartmental analysis, read-out: CL (clearance rate) (converted)): 0.29 mL/min/kg | MRT (Pharmacokinetics in mice; female, BALB/c, mouse, mice, non-compartmental analysis, read-out: MRT (mean residence time)): 5.83 h | Vd (Pharmacokinetics in mice; female, BALB/c, mouse, mice, non-compartmental analysis, read-out: VSS (Vd at steady state)): 0.1 L/kg | sensitivity of turnercyclamycin B-resistant strains compared with wild type ([1]; Table 2, Fig. S3): more sensitive | loss in susceptibility of A. baumannii ΔlpxC in comparison to the wild-type strain [2]: greater than fourfold | resistance reached by serial passaging (× original MIC90) (E. coli DH5α [3]; daily passaging at sub-MIC for 63 d): 8 × | time of exposure to reach 32× the original MIC90 (E. coli DH5α [3]): > 63 days | change of MIC90 against AB8497 versus wild type [4]: retained wild-type potency | change of MIC90 against AB8499 versus wild type [4]: retained wild-type potency

CC[C@H](C)CCCCC(=O)N[C@@H](CCN)C(=O)N[C@H](C(=O)N[C@@H](CCN)C(=O)N[C@H]1CCNC(=O)[C@H]([C@@H](C)O)NC(=O)[C@H](CCN)NC(=O)[C@H](CCN)NC(=O)[C@H](CC(C)C)NC(=O)[C@@H](CC(C)C)NC(=O)[C@H](CCN)NC1=O)[C@@H](C)O [Colistin, colistin (polymyxin E)] (X3-[Dab]T[Dab][Dab][Dab][dL]L[Dab][Dab]T; lactam 4-C)
loss of potency against strains expressing mcr-1 versus parent (pGDP2-MCR-1 in DH5α; MIC90 ratio mcr-1 strains / parent strains): 16 fold | MIC90 (pGDP2-MCR-1 in DH5α; text summary: strains expressing mcr-1 (DH5α and C600)): 8 µg/mL (≈ 6.84 µM) | MIC90 [5]: 0.25 µg/mL (≈ 0.214 µM) | MIC90 (pBR322 in DH5α): 0.5 µg/mL (≈ 0.428 µM) | MIC90 (E. coli C600): 0.5 µg/mL (≈ 0.428 µM) | MIC90 (pBR322 in C600): 1 µg/mL (≈ 0.855 µM) | MIC90 (E. coli DH5α [6]; DH5α WT (Table 2)): 0.5 µg/mL (≈ 0.428 µM) | MIC90 (E. coli DH5α [6]; text summary: both E. coli parent and vector-control strains (DH5α and C600)): 0.5 µg/mL (≈ 0.428 µM) | MIC90 ([1]; Strain 1): 0.5 µg/mL (≈ 0.428 µM) | MIC90 ([1]; Strain 2 (found contaminated with Staphylococcus)): 0.5 µg/mL (≈ 0.428 µM) | MIC90 ([1]; Strain 3): 0.5 µg/mL (≈ 0.428 µM) | MIC90 ([1]; Strain 4): 0.5 µg/mL (≈ 0.428 µM) | MIC90 ([1]; Strain 5): 0.5 µg/mL (≈ 0.428 µM) | MIC90 (pGDP2-MCR-1 in C600): 8 µg/mL (≈ 6.84 µM) | resistance of ΔpldA strain compared with WT A. baylyi ADP1 (A. baylyi ADP1 ΔpldA): did not significantly demonstrate resistance | resistance of OmpC and OmpF knockouts (E. coli ΔompC, ΔompF): not resistant | loss in susceptibility of A. baumannii ΔlpxC in comparison to the wild-type strain [2]: greater than fourfold | sensitivity of the mlaA mutants in comparison to the wild type [4]: potentially slightly more sensitive | susceptibility of Yersinia pestis after LPS modification with 4-amino-4-deoxy-L-arabinose (Yersinia pestis): blocked

CO[C@H]1/C=C/O[C@@]2(C)Oc3c(C)c(O)c4c(O)c(cc(O)c4c3C2=O)NC(=O)/C(C)=C\C=C\[C@H](C)[C@H](O)[C@@H](C)[C@@H](O)[C@@H](C)[C@H](OC(C)=O)[C@@H]1C [Rifamycin, rifamycin]
sensitivity of the mlaA mutants in comparison to the wild type [4]: increase in sensitivity

CCCCCC/C=C\CCCCCCCC(=O)N[C@H](CCCN)C(=O)N[C@@H](CO)C(=O)N[C@H](C(=O)N[C@@H](C(=O)N[C@@H](C(=O)N[C@H]1C(=O)NCC(=O)N[C@@H](C(C)(O)CC)C(=O)N[C@H]([C@@H](C)CC)C(=O)N[C@@H](CCO)C(=O)N[C@@H](C)C(=O)N[C@H]([C@@H](C)CC)C(=O)N[C@@H](CCC(=O)O)C(=O)O[C@@H]1C)[C@@H](O)CN)[C@@H](O)C(=O)O)C(C)C (stereo partly drawn) [Turnercyclamycin B] (Palmitoleoyl-[dOrn]SV[dAsp(3R-OH)][X1][d(aThr)]G[X2][d(aIle)][hSer]A[d(aIle)]E; ester 6-C)
time of exposure to reach 32× the original MIC90 (E. coli DH5α [3]): 8 to 14 days | change of MIC90 against AB8497 versus wild type [4]: doubled | change of MIC90 against AB8499 versus wild type [4]: fourfold
